According to US11879137B2, “Treatment of type 1 diabetes and autoimmune diseases or disorders” (THE CHILDREN'S MEDICAL CENTER CORPORATION, priority 2017, dated 2024):

Legend:
Format in all cases: cell-based, human
CD34+ cells [1] = test: qRT-PCR of PD-L1, CXCR4 and IDO-1 in prostaglandin-modulated CD34+ cells; settings: for PD-L1 mRNA expression by RT-PCR: CD34+ cells upon modulation
Description: qRT-PCR. RNA was extracted from CD34+ cells using Direct-Zol™ RNA Kits (Zymo, Irvine, CA, USA) and Trizol Reagent (Invitrogen Carlsbad, CA), RNA quality was assessed by Multiskan™ GO Microplate spectrophotometer and the ratios of absorbance at 260 nm and 280 nm were assessed for all the samples. Only samples with RNA ratios within 1.9 were included in the present study. cDNA synthesis was made from purified total RNA by reverse transcription using High capacity cDNA Reverse Transcription RETROscript® Kit (Thermo Fisher Scientific, Waltham, MA, USA) followed by a pre-amplification using Taqman PreAmp Kit (Applied Biosystems) according to the manufacturer's instructions. qRT-PCR analysis was performed using TaqMan assays (Life Technologies, Grand Island, NY) containing PCR primers and TaqMan probes according to the manufacturer's instructions. Normalized expression values were determined using the ΔCt method. Quantitative reverse transcriptase polymerase chain reaction (qRT-PCR) data were normalized for the expression of GAPDH. qRT-PCR reactions were performed in triplicate in a 96-well format using an Applied Biosystems 7900HT fast real-time PCR instrument. Relative expression was calculated using the comparative threshold cycle method as previously described (23, 24). For two-group comparisons, a Student's t test was employed. Reported below are the main characteristics of the primers used: […]
Prostaglandin library screening. PGE2 has been described as a small molecule known to enhance the homing and engraftment of HSPCs. It was therefore sought to screen all known types of prostaglandins using the Prostaglandin Screening Library II, which contains 64 small molecules. Each small molecule contained in the library was first screened for its capacity to upregulate PD-L1 in human CD34+ cells isolated from T1D patients (FIG. 17A-17B). CD34+ cells isolated from T1D patients were cultured in StemSpan SFEMII and pulsed with each PG (prostaglandin) small molecule contained in the aforementioned library at a concentration of 10 μM at 24 and 48h. Using FACS analysis, the MFI (mean fluorescence intensity) of PD-L1 expression was calculated following treatment with each small molecule used to modulate CD34+ cells as compared to untreated/unmodulated CD34+ cells (FIG. 17B). A heat map was generated depicting the degree to which each PG small molecule affected PD-L1 expression on CD34+ cells (FIG. 17B), thus allowing for the evaluation of PG candidates. Based on its ability to modulate PD-L1 expression, PGE2 was selected as a candidate for further study; in addition, PGE2 has been described in the literature and has been tested in clinical trials as a potential therapy for enhancing HSPC engraftment following cord blood transplantation (21). Isolated CD34+ cells from healthy control patients (CTRL) and from T1D patients were cultured in StemSpan SFEMII and pulsed with 10 μM of PGE2 at 24 hours and 48 hours. […] It was therefore sought to perform a migration assay in order to assess the homing properties of PGE2-treated CD34+ cells (FIG. 17F).

PD-L1 on CD34+ cells = test: Confocal imaging of PD-L1 on PGE2-treated CD34+ cells; settings: vs untreated CD34+ cells
Description: Immunofluorescence and confocal microscopy. Regulatory CD34+(PGE2-modulated) cells and unmodulated CD34+ cells isolated from peripheral blood of healthy controls were fixed in 4% PFA for 1h at 4 C, washed 3 times for 20 min in PBS, and cells were counterstained with blue fluorescent DAPI (1:10000, BioLegend, San Diego, CA) and anti-human PD-L1 (BD Biosciences). Cells were photographed under a 63× objective. Images were captured on a Leica SPSX system with an upright DM6000 microscope and AIR confocal microscope (Nikon Instruments, Melville, NY). Histology was evaluated by at least two expert pathologist (9).
Prostaglandin library screening. PGE2 has been described as a small molecule known to enhance the homing and engraftment of HSPCs. It was therefore sought to screen all known types of prostaglandins using the Prostaglandin Screening Library II, which contains 64 small molecules. Each small molecule contained in the library was first screened for its capacity to upregulate PD-L1 in human CD34+ cells isolated from T1D patients (FIG. 17A-17B). […] Using FACS analysis, the MFI (mean fluorescence intensity) of PD-L1 expression was calculated following treatment with each small molecule used to modulate CD34+ cells as compared to untreated/unmodulated CD34+ cells (FIG. 17B). […]

CD34+ cells [2] = test: Transwell migration assay toward SDF-1; settings: SDF-1, 2 hours
Description: Migration assay. Transwell migration assays were performed on PGE2-modulated HSPCs compared to unmodulated HSPCs in the presence of 0 to 50 ng/ml SDF-1 (R&D Systems, Minneapolis, MN). In brief, cells were suspended in 0.5% BSA Phenol Red-Free RPMI and plated in the upper chambers of an HTS-Transwell-96-well permeable support plate (Corning, Acton, MA) and incubated at 37° C. in 5% CO2 for 2 hours. After 2 hours incubation, migrated cells were counted using BD TruCount (BD Biosciences) by flow cytometry.
Prostaglandin library screening. PGE2 has been described as a small molecule known to enhance the homing and engraftment of HSPCs. It was therefore sought to screen all known types of prostaglandins using the Prostaglandin Screening Library II, which contains 64 small molecules. Each small molecule contained in the library was first screened for its capacity to upregulate PD-L1 in human CD34+ cells isolated from T1D patients (FIG. 17A-17B). CD34+ cells isolated from T1D patients were cultured in StemSpan SFEMII and pulsed with each PG (prostaglandin) small molecule contained in the aforementioned library at a concentration of 10 μM at 24 and 48h. Using FACS analysis, the MFI (mean fluorescence intensity) of PD-L1 expression was calculated following treatment with each small molecule used to modulate CD34+ cells as compared to untreated/unmodulated CD34+ cells (FIG. 17B). […]

| SMILES | PD-L1 mRNA expression by RT-PCR (CD34+ cells [1]) | IDO-1 expression (mRNA) (CD34+ cells [1]; post-pharmacologic modulation) | increase of CXCR4 gene expression by RT-PCR (CD34+ cells [1]; vs untreated CD34+ cells) [fold] | PD-L1 surface expression by confocal imaging (PD-L1 on CD34+ cells) | homing potential in migration assay (CD34+ cells [2]) |
| --- | --- | --- | --- | --- | --- |
| CCCCC(C)(C)[C@H](O)/C=C/[C@H]1[C@H](O)CC(=O)[C@@H]1C/C=C\CCCC(=O)O [16,16-dimethyl PGE2] | marked upregulation | – | – | – | – |
| CCCCC[C@H](O)/C=C/[C@H]1[C@H](O)CC(=O)[C@@H]1C/C=C\CCCC(=O)O [PGE2, prostaglandin E2] | slight increase | remained unchanged | 2 | upregulated | substantial increase |
